What was measured:
Format in all cases: functional
[1] = Antiproliferative activity against human IMR32 cells assessed as growth inhibition after 48 hrs by SRB assay; conditions: IMR-32, 48 h
MDA-MB-231 = experiment: Antiproliferative activity against human MDA-MB-231 cells assessed as growth inhibition after 48 hrs by SRB assay; conditions: MDA-MB-231, 48 h
HeLa = experiment: Antiproliferative activity against human HeLa cells assessed as growth inhibition after 48 hrs by SRB assay
[2] = Antiproliferative activity against human MiaPaCa cells assessed as growth inhibition after 48 hrs by SRB assay; conditions: MIA PaCa-2, 48 h

SMILES | GI50 ([1]; read-out: GI50) [µM] | GI50 ([1]; read-out: pGI50 (converted)) [µM] | GI50 (MDA-MB-231; read-out: GI50) [µM] | GI50 (HeLa; read-out: GI50) [µM] | GI50 (HeLa; read-out: pGI50 (converted)) [µM] | GI50 ([2]; read-out: GI50) [µM] | GI50 ([2]; read-out: pGI50 (converted)) [µM] | GI50 (MDA-MB-231; read-out: pGI50 (converted)) [µM]
COc1cc(OC)c(-c2nc3ccccc3c(=O)n2C/C=C/c2ccc(-c3cnc4ccccc4n3)cc2)c(OC)c1 | 0.77 | 0.771 | < 0.01 | 2.5 | 2.5 | 2.2 | 2.2 | –
COc1ccc(-c2nc3ccccc3c(=O)n2C/C=C/c2ccc(-c3cnc4ccccc4n3)cc2)c(F)c1 | 1.2 | 1.2 | < 0.01 | 0.9 | 0.902 | 28.6 | 28.6 | –
COc1ccc(-c2nc3ccccc3c(=O)n2C/C=C/c2ccc(-c3cnc4ccccc4n3)cc2)c(OC)c1 | 6.3 | 6.31 | < 0.01 | 31.6 | 31.6 | 13.6 | 13.6 | –
O=c1c2ccccc2nc(-c2ccc(C(F)(F)F)cc2)n1C/C=C/c1ccc(-c2cnc3ccccc3n2)cc1 | 5.3 | 5.31 | 1.8 | 17.7 | 17.7 | 10 | 10 | 1.8
COc1cccc(-c2nc3ccccc3c(=O)n2C/C=C/c2ccc(-c3cnc4ccccc4n3)cc2)c1 | 0.32 | 0.321 | 1.25 | 0.12 | 0.12 | 2 | 2 | 1.25
Cc1ccc(-c2nc3ccccc3c(=O)n2C/C=C/c2ccc(-c3cnc4ccccc4n3)cc2)cc1 | 2.2 | 2.2 | 1.24 | 9.2 | 9.2 | 11.4 | 11.4 | 1.24
O=c1c2ccccc2nc(-c2ccccc2)n1C/C=C/c1ccc(-c2cnc3ccccc3n2)cc1 | 1.01 | 1.01 | 6.4 | 5.1 | 5.11 | 2.8 | 2.81 | 6.41
O=c1c2ccccc2nc(-c2ccc([N+](=O)[O-])cc2)n1C/C=C/c1ccc(-c2cnc3ccccc3n2)cc1 | < 0.01 | – | 0.14 | 0.9 | 0.902 | 6.1 | 6.11 | 0.14
Cc1nc2ccccc2c(=O)n1CCCc1ccc(-c2cnc3ccccc3n2)cc1 | 0.22 | 0.22 | 0.62 | 0.032 | 0.0321 | 1.2 | 1.2 | 0.621
O=c1c2ccccc2nc(-c2ccc(F)cc2)n1C/C=C/c1ccc(-c2cnc3ccccc3n2)cc1 | 65 | 65 | 1.7 | 16.1 | 16.1 | < 0.01 | – | 1.7
COc1ccc(-c2nc3ccccc3c(=O)n2C/C=C/c2ccc(-c3cnc4ccccc4n3)cc2)cc1 | 2.8 | 2.81 | 0.64 | 1.2 | 1.2 | 2.1 | 2.1 | 0.641
O=c1c2ccccc2nc(-c2ccc(Cl)cc2)n1C/C=C/c1ccc(-c2cnc3ccccc3n2)cc1 | < 0.01 | – | 0.57 | 69.5 | 69.5 | 6.4 | 6.41 | 0.57
COc1ccc(OC)c(-c2nc3ccccc3c(=O)n2C/C=C/c2ccc(-c3cnc4ccccc4n3)cc2)c1 | 0.28 | 0.282 | 1.36 | 0.038 | 0.038 | 1.8 | 1.8 | 1.36
O=c1c2ccccc2nc(-c2ccc(Cl)cc2Cl)n1C/C=C/c1ccc(-c2cnc3ccccc3n2)cc1 | 2.6 | 2.6 | 0.4 | > 100 | – | 4.4 | 4.41 | 0.401
CCOc1ccc(-c2nc3ccccc3c(=O)n2C/C=C/c2ccc(-c3cnc4ccccc4n3)cc2)cc1 | 0.47 | 0.471 | > 100 | > 100 | – | 2.2 | 2.2 | –
COc1cccc2c1C(=O)c1c(O)c3c(c(O)c1C2=O)C[C@@](O)(C(=O)CO)C[C@@H]3O[C@H]1C[C@H](N)[C@H](O)[C@H](C)O1 [DOXORUBICIN] | 0.023 | 0.023 | 0.085 | 0.073 | 0.0731 | 0.097 | 0.097 | 0.0851
CC(=O)O[C@H]1C(=O)[C@@]2(C)[C@H]([C@H](OC(=O)c3ccccc3)[C@]3(O)C[C@H](OC(=O)[C@H](O)[C@@H](NC(=O)c4ccccc4)c4ccccc4)C(C)=C1C3(C)C)[C@]1(OC(C)=O)CO[C@@H]1C[C@@H]2O [PACLITAXEL] | 0.075 | 0.0752 | 0.091 | 0.025 | 0.025 | 0.056 | 0.0561 | 0.0912

Source: ChEMBL document CHEMBL3808390, “Quinazolinones-Phenylquinoxaline hybrids with unsaturation/saturation linkers as novel anti-proliferative agents” (2016)
